Marks after values point to notes of the source that are not given here. Where no end group is shown, it is not given here. [ ]: non-standard residue; d: D form.
Columns and labels:
LC3 = LC3 marker assay (LC3-I to LC3-II conversion immunoblot);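 on Activity (μM) 10, LC3 assay activity: HeLa cells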;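 on Activity (μM) 100, LC3 assay activity: HeLa cells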;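 on Activity (μM) 20, LC3 assay activity: HeLa cells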;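 on Activity (μM) 30, LC3 assay activity: HeLa cells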;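 on Activity (μM) 50, LC3 assay activity: HeLa cells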; type: cell-based; parameters: key: −: activity not reported; 0: decreased vs. WT; +: similar to WT; ++: modest increase vs. WT; +++: significant increase vs. WT; settings: for Activity (μM) 10, LC3 assay activity: 10 μM; for Activity (μM) 20, LC3 assay activity: 20 μM; for Activity (μM) 30, LC3 assay activity: 30 μM; for Activity (μM) 50, LC3 assay activity: 50 μM; for Activity (μM) 100, LC3 assay activity: 100 μM
Procedure: (§1) Cells were treated with peptide in OPTI-MEM (Thermo Scientific) acidified with 0.15% (v/v) 6N HCl for 3 hour. Cells were rinsed with Dulbecco's phosphate buffered saline (PBS) and lysed in lysis buffer (20 mM HEPES, 150 mM NaCl, 1 mM EDTA, 1% Triton X-100, protease inhibitor cocktail (Roche) on ice for 1 hour. Cell lysates were centrifuged at 16,000 g for 10 min at 4° C. and analyzed by SDS-PAGE and transferred to PVDF membranes. The membranes were blocked 5% non-fat dry milk (NFDM) in PBST (PBS+0.05% Tween-20) for 1 hour, then incubated overnight at 4° C. with primary antibody in 5% NFDM in PBST. The blots were washed with PBST and incubated with HRP-conjugated secondary antibodies diluted in 5% NFDM in PBST for 1 hour at room temperature. Membranes were washed with PBST and visualized with SuperSignal West Pico Chemiluminescent Substrate (Thermo Scientific). Semi-quantitative results were obtained by noting the lowest concentration at which both p62 degradation and LC3-I to LC3-II conversion were observed.
(§2) Compounds 1-10 were evaluated using the assays described in Examples 4 and 5. Activity for each compound was measured in the p62 degradation assay and the LC3 marker assay as described herein. The activity at each concentration of peptide is given as, for example, (0/+) where 0 would be the p62/actin assay activity and + would be the LC3 assay activity.

p62 = p62 degradation assay (p62/actin immunoblot);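 on Activity (μM) 10, p62/actin assay activity: HeLa cells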;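 on Activity (μM) 100, p62/actin assay activity: HeLa cells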;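 on Activity (μM) 20, p62/actin assay activity: HeLa cells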;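 on Activity (μM) 30, p62/actin assay activity: HeLa cells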;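 on Activity (μM) 50, p62/actin assay activity: HeLa cells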; type: cell-based; parameters: key: −: activity not reported; 0: decreased vs. WT; +: similar to WT; ++: modest increase vs. WT; +++: significant increase vs. WT; settings: for Activity (μM) 10, p62/actin assay activity: 10 μM; for Activity (μM) 20, p62/actin assay activity: 20 μM; for Activity (μM) 30, p62/actin assay activity: 30 μM; for Activity (μM) 50, p62/actin assay activity: 50 μM; for Activity (μM) 100, p62/actin assay activity: 100 μM
Procedure: as §1, §2

[1] = Table 3, control vehicle, second symbol of cell
[2] = Table 3, control vehicle, second symbol
[3] = Table 3, control vehicle, first symbol of cell
[4] = Table 3, control vehicle, first symbol
[5] = Table 6, control DMSO, second symbol
[6] = Table 6, control DMSO, first symbol
[7] = Table 8, control compound T25, second symbol
[8] = Table 8, control compound T25, first symbol
[9] = Table 7, control compound T25, second symbol
[10] = Table 7, control compound T25, first symbol

YGRKKRRQRRRGGVWNATFHIWHD [7] (Ac-YGRKKRRQRRRGGVWNATFHIWHD-NH2) [Compound 7, likely Tat-11mer]
Activity (μM) 10, LC3 assay activity (LC3; [1]): ++ | Activity (μM) 20, LC3 assay activity (LC3; [2]): +++/+++ | Activity (μM) 10, p62/actin assay activity (p62; [3]): 0 | Activity (μM) 20, p62/actin assay activity (p62; [4]): +++/+++

VCNATCHIWH [Compound 19]
Activity (μM) 10, LC3 assay activity (LC3; [5]): 0 | Activity (μM) 30, LC3 assay activity (LC3; [5]): 0 | Activity (μM) 50, LC3 assay activity (LC3; [5]): + | Activity (μM) 100, LC3 assay activity (LC3; [5]): + | Activity (μM) 10, p62/actin assay activity (p62; [6]): + | Activity (μM) 30, p62/actin assay activity (p62; [6]): ++ | Activity (μM) 50, p62/actin assay activity (p62; [6]): ++ | Activity (μM) 100, p62/actin assay activity (p62; [6]): +++

VCNATCHIWH [Compound 50]
Activity (μM) 50, LC3 assay activity (LC3; [7]): +++ | Activity (μM) 100, LC3 assay activity (LC3; [7]): +++ | Activity (μM) 50, p62/actin assay activity (p62; [8]): ++ | Activity (μM) 100, p62/actin assay activity (p62; [8]): ++

VCNATCHIWH [Compound 48]
Activity (μM) 50, LC3 assay activity (LC3; [7]): +++/+++ | Activity (μM) 100, LC3 assay activity (LC3; [7]): +++/+++ | Activity (μM) 50, p62/actin assay activity (p62; [8]): +++/+++ | Activity (μM) 100, p62/actin assay activity (p62; [8]): +++/+++

VWNATFHIWH (not fully specified (N-terminus, C-terminus)) [Compound 64]
Activity (μM) 10, LC3 assay activity (LC3; [7]): 0/0 | Activity (μM) 30, starred cell, LC3 assay activity (LC3; Table 8, *Data taken at 20 instead of 30 μM, second symbol): 0/0* | Activity (μM) 10, p62/actin assay activity (p62; [8]): 0/0 | Activity (μM) 30, starred cell, p62/actin assay activity (p62; Table 8, *Data taken at 20 instead of 30 μM, first symbol): 0/0*

VCNACFHIWH [Compound 73]
Activity (μM) 30, LC3 assay activity (LC3; [7]): + | Activity (μM) 50, LC3 assay activity (LC3; [7]): +++ | Activity (μM) 10, starred cell, LC3 assay activity (LC3; Table 8, 10 μM marked * (footnote: data taken at 20 instead of 30 μM), second symbol): 0/0* | Activity (μM) 30, p62/actin assay activity (p62; [8]): 0 | Activity (μM) 50, p62/actin assay activity (p62; [8]): + | Activity (μM) 10, starred cell, p62/actin assay activity (p62; Table 8, 10 μM marked * (footnote: data taken at 20 instead of 30 μM), first symbol): 0/0*

VCNATCHIWH [Compound 26]
Activity (μM) 10, LC3 assay activity (LC3; [5]): +++ | Activity (μM) 30, LC3 assay activity (LC3; [5]): +++/+++ | Activity (μM) 50, LC3 assay activity (LC3; [5]): +++/+++ | Activity (μM) 100, LC3 assay activity (LC3; [5]): +++/+++ | Activity (μM) 10, p62/actin assay activity (p62; [6]): ++ | Activity (μM) 30, p62/actin assay activity (p62; [6]): +++/+++ | Activity (μM) 50, p62/actin assay activity (p62; [6]): +++/+++ | Activity (μM) 100, p62/actin assay activity (p62; [6]): +++/+++

VCNATCHIWH [Compound 21]
Activity (μM) 10, LC3 assay activity (LC3; [5]): 0 | Activity (μM) 30, LC3 assay activity (LC3; [5]): 0 | Activity (μM) 50, LC3 assay activity (LC3; [5]): 0 | Activity (μM) 100, LC3 assay activity (LC3; [5]): 0 | Activity (μM) 10, p62/actin assay activity (p62; [6]): ++ | Activity (μM) 30, p62/actin assay activity (p62; [6]): +++ | Activity (μM) 50, p62/actin assay activity (p62; [6]): +++ | Activity (μM) 100, p62/actin assay activity (p62; [6]): +++

RCNARCRIWR (H-R[dC]NAR[dC]RIWR; not fully specified (C-terminus); cysteine pairing not given here) [Compound 40]
Activity (μM) 50, LC3 assay activity (LC3; [7]): 0/0 | Activity (μM) 100, LC3 assay activity (LC3; [7]): 0/0 | Activity (μM) 50, p62/actin assay activity (p62; [8]): 0/0 | Activity (μM) 100, p62/actin assay activity (p62; [8]): 0/0

VCNATCHIWH [Compound 31]
Activity (μM) 30, LC3 assay activity (LC3; [9]): 0/0 | Activity (μM) 50, LC3 assay activity (LC3; [9]): 0/0 | Activity (μM) 100, LC3 assay activity (LC3; [9]): 0/0 | Activity (μM) 30, p62/actin assay activity (p62; [10]): 0/0 | Activity (μM) 50, p62/actin assay activity (p62; [10]): 0/0 | Activity (μM) 100, p62/actin assay activity (p62; [10]): 0/0

VCNACFHIWH [Compound 4]
Activity (μM) 10, LC3 assay activity (LC3; [1]): 0/0 | Activity (μM) 20, LC3 assay activity (LC3; [2]): 0/0 | Activity (μM) 30, LC3 assay activity (LC3; [9]): 0/0 | Activity (μM) 50, LC3 assay activity (LC3; [2]): 0/0 | Activity (μM) 50, LC3 assay activity (LC3; [9]): ++/++ | Activity (μM) 100, LC3 assay activity (LC3; [2]): + | Activity (μM) 100, LC3 assay activity (LC3; [9]): +++/+++ | Activity (μM) 10, p62/actin assay activity (p62; [3]): 0/0 | Activity (μM) 20, p62/actin assay activity (p62; [4]): 0/0 | Activity (μM) 30, p62/actin assay activity (p62; [10]): 0/0 | Activity (μM) 50, p62/actin assay activity (p62; [4]): 0/0 | Activity (μM) 50, p62/actin assay activity (p62; [10]): ++/++ | Activity (μM) 100, p62/actin assay activity (p62; [4]): +++ | Activity (μM) 100, p62/actin assay activity (p62; [10]): +++/+++

From US10993983B2, “Cyclic peptide epitopes and small-molecule mimics for inducing autophagy” (TRUSTEES OF TUFTS COLLEGE, priority 2016, dated 2021)
